This note sets out measurements from ChEMBL document CHEMBL4699602, “Stapled and Xenopus Glucagon-Like Peptide 1 (GLP-1)-Based Dual GLP-1/Gastrin Receptor Agonists with Improved Metabolic Benefits in Rodent Models of Obesity and Diabetes” (J Med Chem, 2020).

The source made the active and inactive calls. The calls are words filed in the database; no cut-off is given here. *1 amine or outer side, *2 acyl side, *3 side chain or, on linkers, in order; H or OH if unused. Where a SMILES comes first, the peptide text is derived from it. Bridges are numbered along the chain shown (N, C = ends). [ ]: non-standard residue; d: D form. X4 = O=C(O)CCCCCCCCCCCCCCCCC(=O)NC(CCC(=O)NCCOCCOCC(=O)NCCOCCOCC(=O)NCCCCCCNC(=O)C(CCCCNC(=O)CCN1C(=O)CC([*:1])C1=O)NC(=O)CCN1C(=O)CC([*:2])C1=O)C(=O)O; X2 = O=C(O)CCCCCCCCCCCCCCCCC(=O)NC(CCC(=O)NCCOCCOCC(=O)NCCCCCCNC(=O)C(CCCCNC(=O)CCN1C(=O)CC([*:2])C1=O)NC(=O)CCN1C(=O)CC([*:1])C1=O)C(=O)O; X3 = O=C(O)CCCCCCCCCCCCCCCCC(=O)NC(CCC(=O)NCCOCCOCC(=O)NCCCCCCNC(=O)C(CCCCNC(=O)CCN1C(=O)CC([*:1])C1=O)NC(=O)CCN1C(=O)CC([*:2])C1=O)C(=O)O; X7 = O=C(O)CCCCCCCCCCCCCCCCC(=O)NCCOCCOCC(=O)NCCCCCCNC(=O)C(CCCCNC(=O)CCN1C(=O)CC([*:1])C1=O)NC(=O)CCN1C(=O)CC([*:2])C1=O; X8 = O=C(O)CCCCCCCCCCCCCCCCC(=O)NCCOCCOCC(=O)NCCCCCCNC(=O)C(CCCCNC(=O)CCN1C(=O)CC([*:2])C1=O)NC(=O)CCN1C(=O)CC([*:1])C1=O; X1 = CCCCCCCCCCCCCCCC(=O)NCCCCCCNC(=O)C(CCCCNC(=O)CCN1C(=O)CC([*:1])C1=O)NC(=O)CCN1C(=O)CC([*:2])C1=O; X6 = CCCCCCCCCCCCCCCC(=O)NCCCCCCNC(=O)C(CCCCNC(=O)CCN1C(=O)CC([*:2])C1=O)NC(=O)CCN1C(=O)CC([*:1])C1=O; Aib = CC(C)(N)C(=O)O

For one experiment, the system named is Mus musculus. Kind of experiment: Hypoglycemic activity in ICR mouse assessed as decrease in blood glucose concentration at 25 nmol/kg, ip dosed 15 mins before test and measured up to 120 mins by OGTT method. In kind it is functional, organism-based.
Experiment [1] has as its target T1, Glucagon-like peptide 1 receptor (Homo sapiens, UniProt P43220). The experiment can be described thus: Agonist activity at human GLP-1R expressed in HEK293 cells assessed as stimulation of cAMP accumulation incubated for 20 mins. Format: functional, cell-based. In general terms: cAMP levels reflect the balance of adenylyl cyclase and phosphodiesterase activity.

Experiment [2] concerns the target T1, Glucagon-like peptide 1 receptor. Kind of experiment: Agonist activity at human GLP-1R expressed in HEK293 cells assessed as stimulation of cAMP accumulation incubated for 20 mins in presence of 0% HSA. In kind it is functional, cell-based.
Experiment [3] has the same target. The experiment can be described thus: Agonist activity at human GLP-1R expressed in HEK293 cells assessed as stimulation of cAMP accumulation incubated for 20 mins in presence of 4.4% HSA. In kind it is functional, cell-based.
For experiment [4] the target is unchanged. Kind of experiment: Ratio of EC50 for agonist activity at human GLP-1R expressed in HEK293 cells in presence of 4.4% HSA to EC50 for agonist activity at human GLP-1R expressed in HEK293 cells in presence of 0% HSA. Format: cell-based.

T1 sequence (P43220 whole entry): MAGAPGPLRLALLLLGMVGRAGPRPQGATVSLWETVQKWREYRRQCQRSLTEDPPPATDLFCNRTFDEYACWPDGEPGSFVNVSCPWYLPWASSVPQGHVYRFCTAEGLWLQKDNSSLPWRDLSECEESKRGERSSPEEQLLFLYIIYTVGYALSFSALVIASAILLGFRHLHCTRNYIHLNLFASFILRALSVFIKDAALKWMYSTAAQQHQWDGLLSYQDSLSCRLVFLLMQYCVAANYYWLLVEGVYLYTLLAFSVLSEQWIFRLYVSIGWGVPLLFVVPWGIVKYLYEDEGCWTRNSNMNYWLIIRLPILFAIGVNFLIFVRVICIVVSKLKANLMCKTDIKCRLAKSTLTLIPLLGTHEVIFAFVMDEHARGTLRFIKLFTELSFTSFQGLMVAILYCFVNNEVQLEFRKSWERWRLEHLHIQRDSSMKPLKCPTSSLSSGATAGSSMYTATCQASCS

With `CC[C@H](C)[C@H](NC(=O)[C@H](Cc1ccccc1)NC(=O)[C@H](CCC(=O)O)NC(=O)[C@H](CCCCN)NC(=O)[C@H](C)NC(=O)[C@H](C)NC(=O)[C@H](CCC(N)=O)NC(=O)CNC(=O)[C@H](CCC(=O)O)NC(=O)[C@H](CC(C)C)NC(=O)[C@H](Cc1ccc(O)cc1)NC(=O)[C@H](CO)NC(=O)[C@H](CO)NC(=O)[C@@H](NC(=O)[C@H](CC(=O)O)NC(=O)[C@H](CO)NC(=O)[C@@H](NC(=O)[C@H](Cc1ccccc1)NC(=O)[C@@H](NC(=O)CNC(=O)[C@H](CCC(=O)O)NC(=O)[C@H](C)NC(=O)[C@@H](N)Cc1cnc[nH]1)[C@@H](C)O)[C@@H](C)O)C(C)C)C(=O)N[C@@H](C)C(=O)N[C@@H](Cc1c[nH]c2ccccc12)C(=O)N[C@@H](CC(C)C)C(=O)N[C@H](C(=O)N[C@@H](CCCCN)C(=O)NCC(=O)N[C@@H](CCCNC(=N)N)C(=O)O)C(C)C`, the result with Mus musculus was Active.

For orientation: EC50 means the midpoint of the concentration-response curve. `CC[C@H](C)[C@H](NC(=O)[C@H](CC(C)C)NC(=O)[C@H](Cc1c[nH]c2ccccc12)NC(=O)[C@H](CCC(=O)O)NC(=O)[C@@H](NC(=O)[C@H](Cc1ccccc1)NC(=O)[C@H](CS)NC(=O)[C@H](CCCCN)NC(=O)[C@H](C)NC(=O)[C@H](C)NC(=O)[C@H](CCC(=O)O)NC(=O)[C@H](CCC(=O)O)NC(=O)[C@H](CCC(=O)O)NC(=O)[C@H](CS)NC(=O)[C@H](Cc1ccc(O)cc1)NC(=O)[C@H](CCC(=O)O)NC(=O)[C@@H](NC(=O)[C@@H](NC(=O)[C@H](CC(=O)O)NC(=O)[C@H](CC(N)=O)NC(=O)[C@@H](NC(=O)[C@H](Cc1ccc(O)cc1)NC(=O)[C@@H](NC(=O)CNC(=O)[C@H](CCC(=O)O)NC(=O)C(C)(C)NC(=O)[C@@H](N)Cc1c[nH]cn1)[C@@H](C)O)[C@@H](C)O)C(C)C)[C@@H](C)O)[C@@H](C)CC)C(=O)N[C@@H](CCCCN)C(=O)NCC(=O)N[C@@H](CCCCN)C(=O)N1CCC[C@H]1C(=O)N[C@@H](CO)C(=O)N[C@@H](CO)C(=O)NCC(=O)N[C@@H](C)C(=O)N1CCC[C@H]1C(=O)N1CCC[C@H]1C(=O)N1CCC[C@H]1C(=O)N[C@@H](CO)C(N)=O` (HELM PEPTIDE1{H.[Aib].E.G.T.Y.T.N.D.V.T.E.Y.C.E.E.E.A.A.K.C.F.I.E.W.L.I.K.G.K.P.S.S.G.A.P.P.P.S.[am]}$$$$V2.0): the EC50 in experiment [1] came out at 0.042 nM. For the same compound, the result in the experiment on Mus musculus was Active.

Turning to `CC[C@H](C)[C@H](NC(=O)[C@H](CC(C)C)NC(=O)[C@H](Cc1c[nH]c2ccccc12)NC(=O)[C@H](CCC(=O)O)NC(=O)[C@@H](NC(=O)[C@H](Cc1ccccc1)NC(=O)[C@H](CS)NC(=O)[C@H](CCCCN)NC(=O)[C@H](C)NC(=O)[C@H](C)NC(=O)[C@H](CCC(=O)O)NC(=O)[C@H](CCC(=O)O)NC(=O)[C@H](CCC(=O)O)NC(=O)[C@H](CS)NC(=O)[C@H](Cc1ccc(O)cc1)NC(=O)[C@H](CCC(=O)O)NC(=O)[C@@H](NC(=O)[C@@H](NC(=O)[C@H](CC(=O)O)NC(=O)[C@H](CC(N)=O)NC(=O)[C@@H](NC(=O)[C@H](Cc1ccc(O)cc1)NC(=O)[C@@H](NC(=O)CNC(=O)[C@H](CCC(=O)O)NC(=O)C(C)(C)NC(=O)[C@@H](N)Cc1c[nH]cn1)[C@@H](C)O)[C@@H](C)O)C(C)C)[C@@H](C)O)[C@@H](C)CC)C(=O)N[C@@H](CCCCN)C(=O)NCC(=O)N[C@@H](CCCCN)C(N)=O` (HELM PEPTIDE1{H.[Aib].E.G.T.Y.T.N.D.V.T.E.Y.C.E.E.E.A.A.K.C.F.I.E.W.L.I.K.G.K.[am]}$$$$V2.0), in experiment [1], the EC50 worked out at 0.066 nM. Besides, the outcome in the experiment with Mus musculus was Active.

As for `CC[C@H](C)[C@@H]1NC(=O)[C@H](CC(C)C)NC(=O)[C@H](Cc2c[nH]c3ccccc23)NC(=O)[C@H](CCC(=O)O)NC(=O)[C@H]([C@@H](C)CC)NC(=O)[C@H](Cc2ccccc2)NC(=O)[C@@H](NC(=O)[C@H](CCCCN)NC(=O)[C@H](C)NC(=O)[C@H](C)NC(=O)[C@H](CCC(=O)O)NC(=O)[C@H](CCC(=O)O)NC(=O)[C@H](CCC(=O)O)NC(=O)[C@H](CC(C)C)NC(=O)[C@H](Cc2ccc(O)cc2)NC(=O)[C@H](CCC(=O)O)NC(=O)[C@@H](NC(=O)[C@@H](NC(=O)[C@H](CC(=O)O)NC(=O)[C@H](CC(N)=O)NC(=O)[C@@H](NC(=O)[C@H](Cc2ccc(O)cc2)NC(=O)[C@@H](NC(=O)CNC(=O)[C@H](CCC(=O)O)NC(=O)C(C)(C)NC(=O)[C@@H](N)Cc2c[nH]cn2)[C@@H](C)O)[C@@H](C)O)C(C)C)[C@@H](C)O)CSC2CC(=O)N(CCC(=O)NC(C(=O)NCCCCCCNC(=O)COCCOCCNC(=O)CCCCCCCCCCCCCCCCC(=O)O)CCCCNC(=O)CCN3C(=O)CC(SC[C@@H](C(=O)NCC(=O)N[C@@H](CCCCN)C(N)=O)NC1=O)C3=O)C2=O` (some centres undefined) (HELM PEPTIDE1{H.[Aib].E.G.T.Y.T.N.D.V.T.E.Y.L.E.E.E.A.A.K.C.F.I.E.W.L.I.C.G.K.[am]}|CHEM1{[O=C(O)CCCCCCCCCCCCCCCCC(=O)NCCOCCOCC(=O)NCCCCCCNC(=O)C(CCCCNC(=O)CCN1C(=O)CC([*:2])C1=O)NC(=O)CCN1C(=O)CC([*:1])C1=O]}$PEPTIDE1,CHEM1,21:R3-1:R1|PEPTIDE1,CHEM1,28:R3-1:R2$$$V2.0), the 50% effective concentration (EC50) in experiment [2] was 0.19 nM; in experiment [3] it was 2.6 nM. Moreover, the Ratio EC50 in experiment [4] turned out to be 13.7.

Turning to “H-H[Aib]EGTYTNDVTEYCEEEAAKCFIEWLIKGKPSSGAPPSKKKKKK-NH2 (linker 14-21 via X1)”, the EC50 in experiment [2] was determined as 0.093 nM; in experiment [3], 1.4 nM. Also, in experiment [4], the Ratio EC50 amounted to 15.1.

As for “H-H[Aib]EGTYTNDVTEYCEEEAAKCFIEWLIKGKPSSGAPPSKKKKKK-NH2 (linker 14-21 via X3)”, the EC50 in experiment [2] is 0.16 nM; in experiment [3], 6.5 nM. Besides, in experiment [4], the Ratio EC50 amounted to 40.6.

Take “H-H[Aib]EGTYTNDVTEYCEEEAAKCFIEWLIKGKPSSGAPPSKKKKKK-NH2 (linker 14-21 via X4)”: the EC50 stood at 0.15 nM in experiment [2] and 12.7 nM in experiment [3]. Besides, the Ratio EC50 in experiment [4] turned out to be 84.7.

For the compound “H-H[Aib]EGTYTNDVTEYCEEEAAKCFIEWLIKGKPSSGAPPSKKKKKK-NH2 (linker 14-21 via X7)”, the EC50 is 0.1 nM in experiment [2] and 1.4 nM in experiment [3]. The Ratio EC50 in experiment [4] came to 14.

As for “H-H[Aib]EGTYTNDVTEYLEEEAAKCFIEWLICGKPSSGAPPSKKKKKK-NH2 (linker 21-28 via X2)”, the values for the EC50 in experiment [2] and in experiment [3] were 0.18 nM and 6.9 nM, respectively. For the same compound, in experiment [4], the Ratio EC50 turned out to be 38.3.

In the case of “H-H[Aib]EGTYTNDVTEYLEEEAAKCFIEWLICGKPSSGAPPSKKKKKK-NH2 (linker 21-28 via X6)”, the EC50 came out at 0.14 nM in experiment [2] and 1.9 nM in experiment [3]. Also, the Ratio EC50 in experiment [4] was 13.6.

For the compound “H-H[Aib]EGTYTNDVTEYLEEEAAKCFIEWLICGKPSSGAPPSKKKKKK-NH2 (linker 21-28 via X8)”, the EC50 in experiment [2] was 0.12 nM; in experiment [3], 1.5 nM. Further, the Ratio EC50 in experiment [4] amounted to 12.5.
